The results in this text go back to ChEMBL document CHEMBL4831541, “Antibiotic Conjugates with an Artificial MECAM-Based Siderophore Are Potent Agents against Gram-Positive and Gram-Negative Bacterial Pathogens” (2021).

≈ marks a conversion by molar mass, not a printed value. Calls of active or inactive are those of the source. No cut-off for these calls is given here.

The test system of assay [1] is Escherichia coli. Put plainly: Antibacterial activity against Escherichia coli K-12 BW25113 delta cyoB assessed as growth inhibition by measuring minimal concentration at OD600 measured after reintroduction of plasmid expressing cyoB G269D mutant by visual inspection with iron-limited media incubated for 24 hrs. It counts as functional.
Assay [2] relates to Escherichia coli. Put plainly: Antibacterial activity against Escherichia coli delta fepA assessed as growth inhibition by measuring minimal concentration at OD600 by visual inspection with iron-limited media incubated for 24 hrs. It counts as functional.
Assay [3] has as its system Staphylococcus aureus. The assay is described as follows: Antibacterial activity against Staphylococcus aureus DSM11822 assessed as growth inhibition by measuring minimal concentration at OD600 by visual inspection with iron-limited media incubated for 24 hrs. It counts as functional.
The subject of assay [4] is Escherichia coli. Put plainly: Antibacterial activity against Escherichia coli K-12 BW25113 delta exbB assessed as growth inhibition by measuring minimal concentration at OD600 by visual inspection measured after reintroduction of plasmid expressing full length exbB with iron-limited media incubated for 24 hrs. Format: functional.
Assay [5] concerns Escherichia coli. The assay is described as follows: Antibacterial activity against Escherichia coli K-12 BW25113 assessed as growth inhibition after 21 serial passages by measuring minimal concentration at OD600 by visual inspection with iron-limited media incubated for 24 hrs. Format: functional.
Assay [6] has as its system Escherichia coli. Put plainly: Antibacterial activity against Escherichia coli delta fepD assessed as growth inhibition by measuring minimal concentration at OD600 by visual inspection with iron-limited media incubated for 24 hrs. It counts as functional.
Assay [7] concerns Escherichia coli. Put plainly: Antibacterial activity against Escherichia coli delta fepA delta cirA assessed as growth inhibition by measuring minimal concentration at OD600 by visual inspection with iron-limited media incubated for 24 hrs. It counts as functional.
In assay [8] the test system is Escherichia coli. The assay is described as follows: Antibacterial activity against Escherichia coli delta fepB assessed as growth inhibition by measuring minimal concentration at OD600 by visual inspection with iron-limited media incubated for 24 hrs. It counts as functional.
Assay [9] deals with Escherichia coli. Put plainly: Antibacterial activity against wild type Escherichia coli BW25113 assessed as growth inhibition by measuring minimal concentration at OD600 by visual inspection with iron-limited media incubated for 24 hrs. Format: functional.
In assay [10] the test system is Klebsiella pneumoniae. Put plainly: Antibacterial activity against Klebsiella pneumoniae DSM11678 assessed as growth inhibition by measuring minimal concentration at OD600 by visual inspection with iron-limited media incubated for 24 hrs. Format: functional, organism-based.
Assay [11] has as its system Enterococcus faecium. The assay is described as follows: Antibacterial activity against Enterococcus faecium DSM20477 assessed as growth inhibition by measuring minimal concentration at OD600 by visual inspection with iron-limited media incubated for 24 hrs. Format: functional.
Assay [12] deals with Escherichia coli. The assay is described as follows: Antibacterial activity against Escherichia coli delta exbB assessed as growth inhibition by measuring minimal concentration at OD600 by visual inspection with iron-limited media incubated for 24 hrs. Format: functional.
The subject of assay [13] is Escherichia coli. Put plainly: Antibacterial activity against Escherichia coli BW25113 assessed as growth inhibition by measuring minimal concentration at OD600 by visual inspection with iron-limited media incubated for 24 hrs. It counts as functional.
For assay [14], the system named is Escherichia coli. Put plainly: Antibacterial activity against Escherichia coli delta tonB assessed as growth inhibition by measuring minimal concentration at OD600 by visual inspection with iron-limited media incubated for 24 hrs. Format: functional.
The test system of assay [15] is Escherichia coli. Put plainly: Antibacterial activity against Escherichia coli delta fepA delta cirA delta fiu assessed as growth inhibition by measuring minimal concentration at OD600 by visual inspection with iron-limited media incubated for 24 hrs. It counts as functional.
The subject of assay [16] is Pseudomonas aeruginosa. Put plainly: Antibacterial activity against Pseudomonas aeruginosa DSM24068 assessed as growth inhibition by measuring minimal concentration at OD600 by visual inspection with iron-limited media incubated for 24 hrs. Format: functional, organism-based.
In assay [17] the test system is Escherichia coli. Put plainly: Antibacterial activity against Escherichia coli K-12 BW25113 delta exbB assessed as growth inhibition by measuring minimal concentration at OD600 by visual inspection measured after reintroduction of plasmid expressing exbB Q163 mutant with iron-limited media incubated for 24 hrs. It counts as functional.
Assay [18] deals with Acinetobacter baumannii. The assay is described as follows: Antibacterial activity against Acinetobacter baumannii DSM30007 assessed as growth inhibition by measuring minimal concentration at OD600 by visual inspection with iron-limited media incubated for 24 hrs. Format: functional.
Assay [19] deals with Escherichia coli. The assay is described as follows: Antibacterial activity against Escherichia coli delta fiu assessed as growth inhibition by measuring minimal concentration at OD600 by visual inspection with iron-limited media incubated for 24 hrs. Format: functional.
Assay [20] has as its system Escherichia coli. The assay is described as follows: Antibacterial activity against Escherichia coli K-12 BW25113 delta cyoB assessed as growth inhibition by measuring minimal concentration at OD600 by visual inspection with iron-limited media incubated for 24 hrs. It counts as functional.
Assay [21] has as its system Escherichia coli. The assay is described as follows: Antibacterial activity against Escherichia coli delta cirA delta fiu assessed as growth inhibition by measuring minimal concentration at OD600 by visual inspection with iron-limited media incubated for 24 hrs. Format: functional.
The test system of assay [22] is Escherichia coli. The assay is described as follows: Antibacterial activity against Escherichia coli delta cirA assessed as growth inhibition by measuring minimal concentration at OD600 by visual inspection with iron-limited media incubated for 24 hrs. It counts as functional.
The subject of assay [23] is Escherichia coli. Put plainly: Antibacterial activity against Escherichia coli delta […] delta fiu assessed as growth inhibition by measuring minimal concentration at OD600 by visual inspection with iron-limited media incubated for 24 hrs. Format: functional.

Broadly, the MIC is the lowest concentration that inhibits growth of the organism. `CC(=O)Oc1cccc(C(=O)NCc2cc(CNC(=O)c3cccc(OC(C)=O)c3OC(C)=O)c(NC(=O)CCCc3cn(CCC(=O)N[C@@H](C(=O)N[C@@H]4C(=O)N5[C@@H]4SC(C)(C)[C@@H]5C(=O)O)c4ccccc4)nn3)c(CNC(=O)c3cccc(OC(C)=O)c3OC(C)=O)c2)c1OC(C)=O`: the MIC is 2.9 µM (≈ 4.01 µg/mL) in assay [1]; 2.9 µM (≈ 4.01 µg/mL) in assay [2]; 0.12 µM (≈ 0.166 µg/mL) in assay [3]; 2.9 µM (≈ 4.01 µg/mL) in assay [4]; over 12 µM in [5]; 1.5 µM (≈ 2.07 µg/mL) in assay [6]. Also, the MIC is 1.5 µM (≈ 2.07 µg/mL) in assay [7]; 2.9 µM (≈ 4.01 µg/mL) in assay [8]; 0.62 µM (≈ 0.856 µg/mL) in [11]; over 12 µM in [12]; at most 0.09 µM in [13]; over 12 µM in assay [14]. The MIC in assay [15] is over 12 µM; in [17], over 12 µM; in [18], at most 0.09 µM; in [19], 1.5 µM (≈ 2.07 µg/mL); in [20], 2.9 µM (≈ 4.01 µg/mL); in assay [21] it was 2.9 µM (≈ 4.01 µg/mL). In addition, the MIC in assay [22] was determined as 2.9 µM (≈ 4.01 µg/mL); in assay [23], 1.5 µM (≈ 2.07 µg/mL). Moreover, the result in assay [9], in [10] and in [16] was inactive.
